Laboratory results taken from patent US20040073973A1, “Plant enzyme and use thereof” (priority 1996, published 2004).

Tests used:
Assay type in all cases: biochemical, Ulmus glabra
[1] = system: Developing Elm Seed Soluble PLA2; assay: Effects of reduction, EGTA and heat on PLA2 activity; conditions: for PLA2 Activity Released [^14C] fatty acids: control 4740 dpm; for sensitivity of PLA2 activities to reducing agents: purified soluble and microsomal PLA2s
Procedure: (§1) Membrane associated PLA2 activity was assayed according to Stahl et al. (1995) using sn-1-palmitoyl-sn-2-[^14C]decanoyl-sn-glycerol-3-phosphocholine as substrate. In standard assays of the solubilized microsomal activity and of the soluble activity 1-palmitoyl-2-[[…]]palmitoyl-glycerol-sn-3-phosphocholine was used as substrate and was presented as mixed micelles with the non-ionic detergent lubrol PX, in a PC/detergent molar relation of 1:10. Samples, 0.5-10 μl, were assayed for PLA2 activity by incubation at 30° C. for 5-30 min with 5 nmol of ^14C-labelled phosphatidylcholine (10,000 dpm/nmol) in a total volume of 50 μl of 50 mM Tris/HCl, pH 8.0 containing 10 mM CaCl2 and 0.06% (w/v) lubrol PX. The reaction was stopped by the addition of 400 μl of chloroform/methanol/acetic acid 50:50:1 followed by 150 μl of H2O. The samples were mixed thoroughly and centrifuged 10,000 g for 1 min. Chloroform phases containing extracted lipids were passed through mini-columns of silica gel, followed by a wash with 400 μl of chloroform. The eluates from the silica columns, containing released [^14C]palmitic acid, were collected and analysed by scintillation counting.

[2] = system: microsomal PLA2; assay: Substrate specificity of microsomal PLA2
Procedure: as §1

[3] = system: soluble developing elm seed PLA2; assay: Position specificity of soluble PLA2 (partly purified fraction)
Procedure: as §1

In the case of OCCS [Mercaptoethanol], the “PLA2 Activity Released [^14C] fatty acids” value ([1]; Mercaptoethanol 1% (v/v)) is reported as 170 dpm and the “sensitivity of PLA2 activities to reducing agents” value [1] is reported as “sensitive”.

For CCCCCCCCCCCCCCCC(=O)OC[C@H](COP(=O)([O-])OCC[N+](C)(C)C)OC(=O)CCCCCCCCC [sn-1-16:0-sn-2-[^14C]10:0-PC, sn-1-palmitoyl-sn-2-[^14C]decanoyl-sn-glycerol-3-phosphocholine], the “Recovered ^14C activity in LPC” value [2] was 0.6 % of total recovery, the “Recovered ^14C activity in PC” value [2] was 54 % of total recovery and the “Recovered ^14C activity in fatty acid” value [2] was 44 % of total recovery.

CCCCCCCCCCCCCCCC(=O)OC[C@H](COP(=O)([O-])OCC[N+](C)(C)C)OC(=O)CCCCCCCCCCCCCCC [sn-1-16:0-sn-2-[^14C]16:0-PC, sn-1-palmitoyl-sn-2-[^14C]palmitoyl-sn-glycerol-sn-3-phosphocholine] was tested, and the “Recovered ^14C activity in LPC” value [3] was 0.6 % of total recovery, the “Recovered ^14C activity in PC” value [3] was 56 % of total recovery and the “Recovered ^14C activity in fatty acid” value [3] was 44 % of total recovery. The “Recovered ^14C activity in LPC” value [2] was 0.8 % of total recovery, the “Recovered ^14C activity in PC” value [2] was 65 % of total recovery and the “Recovered ^14C activity in fatty acid” value [2] was 34 % of total recovery.

O=C(O)CN(CCOCCOCCN(CC(=O)O)CC(=O)O)CC(=O)O [EGTA] was tested, and the “PLA2 Activity Released [^14C] fatty acids” value ([1]; EGTA 10 mM) was 170 dpm.

In the case of O[C@H](CS)[C@H](O)CS (racemic) [DTT, dithiothreitol], the “sensitivity of PLA2 activities to reducing agents” value [1] is reported as “sensitive”.
